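In this assay, cells in 96-well plates receive the compound at five concentrations for 48 hours. Endpoints are linearly interpolated between the surrounding concentrations. Abbreviation: GI50, concentration required for 50% inhibition of growth. TGI is the concentration that stops growth completely.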
Assays:
Test in all cases: NCI tumour cell line growth inhibition, 48 h
[1] = tested on: HS 578T breast
[2] = tested on: HL-60(TB) leukemia
[3] = tested on: CCRF-CEM leukemia
[4] = tested on: TK-10 renal
[5] = tested on: A498 renal
[6] = tested on: UO-31 renal
[7] = tested on: NCI-H460 lung
[8] = tested on: MALME-3M melanoma
[9] = tested on: CAKI-1 renal
[10] = tested on: NCI/ADR-RES ovarian
[11] = tested on: MCF7 breast
[12] = tested on: M14 melanoma
[13] = tested on: OVCAR-3 ovarian
[14] = tested on: LOX IMVI melanoma

Structure (SMILES) | TGI [1] [µM] | TGI [2] [µM] | TGI [3] [µM] | TGI [4] [µM] | TGI [5] [µM] | TGI [6] [µM] | TGI [7] [µM] | TGI [8] [µM] | TGI [9] [µM] | TGI [10] [µM] | TGI [11] [µM] | TGI [12] [µM] | TGI [13] [µM] | TGI [14] [µM] | GI50 [9] [µM]
COC(Cc1ccccc1)NC(C)=O (stereo not given) | > 100 | > 100 | > 100 | > 100 | > 100 | > 100 | > 100 | > 100 | > 100 | > 100 | > 100 | > 100 | > 100 | > 100 | 
Cc1nc(C)c(N2CCN(C#N)CC2)c(=O)[nH]1 | > 100 | > 100 | > 100 | > 100 | > 100 | > 100 | > 100 | > 100 | > 100 | > 100 | > 100 | > 100 | > 100 | > 100 | 
CC(=O)OCc1cn(S(=O)(=O)c2ccc(C)cc2)cn1 | > 100 | > 100 | > 100 | > 100 | > 100 | > 100 | > 100 | > 100 | > 100 | > 100 | > 100 | > 100 | 85.9 | > 100 | 
N/N=C(\C(=O)Nc1ccc([N+](=O)[O-])cc1)C(C1=Nc2cc([N+](=O)[O-])ccc2NC1)[N+](=O)[O-] (stereo not given) | > 100 | > 100 | > 100 | > 100 | > 100 | > 100 | > 100 | > 100 | > 100 | > 100 | > 100 | > 100 | > 100 | > 100 | 
CCCCOC(=O)C1CN2C(=NC1(C(F)(F)F)C(F)(F)F)Sc1ccccc12 (stereo not given) | > 100 | 68.9 | > 100 | > 100 | > 100 | > 100 | > 100 | > 100 | > 100 | > 100 | > 100 | > 100 | > 100 | > 100 | 
CC1Cc2cc(O)ccc2C2[C@@H]1C1CC[C@H](O)[C@@]1(C)C[C@@H]2O[N+](=O)[O-] (stereo not given in full) | 22.3 | 8.3 | 41.9 | 63.8 | 78.7 | 63.7 | > 95.7 | > 79.6 | 73.6 | 38.9 | 25.3 | 64.1 | > 84.1 | 32.7 | 
CC(=O)O[C@H]1[C@@H](N2CCN(C)CC2)C[C@H]2[C@@H]3CC=C4C[C@@H](N5CCCC5)CC[C@]4(C)[C@H]3CC[C@@]21C | > 100 | 30.1 | > 100 | > 100 | > 100 | > 100 | > 100 | 51 | > 100 | > 100 | > 100 | 34.5 | > 100 | 39.4 | 
COC(=O)CCC(=O)c1ccc2c(c1)CC1(C2)Cc2ccc3c(c2C1)CCCC3=O (stereo not given) | > 100 | 13.4 | 11 | > 100 | 82.8 | > 59.3 | > 100 | > 68.1 | 78.1 | > 100 | 69.9 | > 57 | 47.7 | > 100 | 
O=C(O)c1cc(Sc2ccc([N+](=O)[O-])c(C(=O)O)c2)ccc1[N+](=O)[O-] | > 100 | > 100 | > 100 | > 100 | > 100 | > 100 | > 100 | > 78.9 | > 100 | > 100 | > 100 | > 100 | > 100 | > 100 | > 100
CCOP(=O)(OCC)/C(C#N)=C/c1c(C)[nH]c2ccccc12 | > 100 | > 100 | > 100 | > 100 | > 100 | 47.8 | > 100 | > 100 | > 100 | > 100 | > 100 | > 100 | > 100 | > 100 | 
CC1(C)O[C@@H]2[C@@H]3OC(=O)C[C@@H]3[C@@H](COCc3ccccc3)[C@@H]2O1 | > 100 | > 100 | > 100 | > 100 | > 100 | > 100 | > 100 | > 100 | > 100 | > 100 | > 100 | > 100 | > 100 | > 100 | 

— PubChem BioAssay (NCI)
